Patent publication US10085973B2, “Pharmaceutical composition containing a compound having a thrombopoietin receptor agonistic activity” (Shionogi & Co., Ltd., priority 2012, dated 2018)

What was measured:
[1] = PK model from phase 1 trial in healthy male adults (plasma concentration); format: in vivo, human
Source text: Using the plasma concentration of the drug and the platelet count data of 54 cases obtained in phase 1 trial carried out in Japan to healthy male adults, a PK/PD model was constructed that can describe pharmacokinetics and a profile of a platelet count. The PK model describing pharmacokinetics was a three-compartment model including three compartments in the absorption process in order to explain the delay in absorption. The PD model describing the relation between the plasma concentration and the profile of platelets counts was a model including five compartments in order to explain the maturation process of platelets. […] We assumed that the distributions of respective model parameters and the distributions of the residual errors of the models follow a log-normal distribution. Parameters were estimated by using the first order conditional estimation method with interaction in a software NONMEM (version VI, level 2.0).

[2] = tested on: patients with thrombocytopenia caused by chronic liver disease; assay: Example 2 Test Example 1: repeated oral administration before percutaneous liver ablation with discontinuation criteria; format: in vivo, human
Source text: To patients with thrombocytopenia caused by chronic liver disease, lusutrombopag as a pretreatment of percutaneous liver ablation was orally administered repeatedly for 7 days while applying the discontinuation criteria designed in Example 1 and profile of the platelet count was studied. In the present Example, the term “ablation” refers to radiofrequency ablation.
Patients with thrombocytopenia caused by chronic liver disease who are scheduled to undergo percutaneous liver ablation.
Patients who meet the following inclusion criteria are included. • 1) Age: 20 years of age or older (at the time of signing informed consent); • 2) Patients who themselves can give a consent in writing; • 3) Patients who have a complication or a history of chronic liver disease caused by hepatitis B or C virus; • 4) Patients who are scheduled to undergo percutaneous liver ablation for primary liver cancer; • 5) Patients having a platelet count which is less than 5×10^4/μL at the time of screening; • 6) Patients whose ECOG* Performance Status of Grade is 0 to 1; and • 7) Patients who can practice contraception from entry to the end of observation. (Exclusion Criteria)
Patients who meet the following criteria are excluded. • 1) Patients who underwent splenectomy; • 2) Patients who have a complication presenting thrombocytopenia; • 3) Patients who underwent liver transplant; • 4) Degree of hepatic disorder classified as the Child-Pugh class of C; • 5) Hepatic encephalopathy uncontrolled by medicaments; • 6) Ascites uncontrolled by medicaments; • 7) Patients who have a complication of malignant tumor other than primary liver cancer; • 8) Patients who have a complication or a history of thrombosis or thrombotic disease; • 9) Patients who have absence of hepatopetal blood flow in the portal vein; • 10) Patients who have a complication or a history of disease with hemorrhage risk; • 11) Patients who received a therapeutic agent that affects a platelet count or underwent a therapy that affects a platelet count within 90 days before registry; • 12) Patients who received a blood product (excluding erythrocyte product) within 14 days before registry; or • 13) Patients who previously received a TPO receptor agonist. (Drugs which are Prohibited, Limited or Allowed for Coadministration During the Trial)
In each allocated group, lusutrombopag is orally administered repeatedly once daily for 7 days. After patients are monitored on day 8, they undergo percutaneous liver ablation before day 13 from initiation of administration. They are monitored until about day 30 after initiation of administration.
Lusutrombopag is orally administered repeatedly once daily for 7 days. On day 1, the drug is administered at the time of visit. On day 3 to day 7 (day 5 to day 7 for the group of 2.0 mg administration), the drug shall be administered after checking the platelet count measured on the same day. Administration of lusutrombopag shall be discontinued when the platelet count reaches to the following criteria (administration discontinuating criteria) in a clinical examination after administration of the investigational drug.
Administration discontinuating criteria: when the platelet count has increased by 2×10^4/μL or more from the platelet count before initiation of administration and the platelet count has reached to 5×10^4/μL or higher.
As the platelet count before initiation of administration, the platelet count determined within 7 days before initiation of administration was used.
Daily dose was any one of 2.0, 2.5, 3.0 and 4.0 mg of lusutrombopag.
Proportion of patients who have a platelet count on day 8 after initiation of administration that increased by 2×10^4/μL or more from the platelet count before initiation of administration and reached to 5×10^4/μL or higher. […]

CCCCCCO[C@@H](C)c1cccc(-c2csc(NC(=O)c3cc(Cl)c(/C=C(\C)C(=O)O)c(Cl)c3)n2)c1OC [lusutrombopag, (E)-3-[2,6-dichloro-4-[4-[3-[(S)-1-hexyloxyethyl]-2-methoxyphenyl]-thiazol-2-ylcarbamoyl]-phenyl]-2-methylacrylic acid]
CL (apparent total clearance), mean [1]: 0.776 L/h
Intra-individual variability (PK model, plasma concentration) [1]: 12.1%
Q3/F (inter-compartmental clearance), mean [1]: 0.946 L/h
Q4/F (inter-compartmental clearance), mean [1]: 0.0262 L/h
V3/F (volume of distribution of peripheral compartment), mean [1]: 6.28 L
V4/F (volume of distribution of peripheral compartment), mean [1]: 2.71 L
ka (transfer rate constant from absorption compartments to central compartment), mean ([1]; Fasting + solution): 0.563 h⁻¹
ktr (inter-absorption-compartmental transfer rate constant), mean ([1]; Fasting + solution): 4.19 h⁻¹
ka (transfer rate constant from absorption compartments to central compartment), mean ([1]; Postprandial + solution): 0.285 h⁻¹
ktr (inter-absorption-compartmental transfer rate constant), mean ([1]; Postprandial + solution): 2.15 h⁻¹
ka (transfer rate constant from absorption compartments to central compartment), mean ([1]; Postprandial + tablet): 0.854 h⁻¹
ktr (inter-absorption-compartmental transfer rate constant), mean ([1]; Postprandial + tablet): 1.38 h⁻¹
Vd/F ([1]; male, human, plasma, oral, × (1 + (BW − 63) × 0.0172), BW body weight kg, read-out: V2/F (volume of distribution of the central compartment), mean): 15.9 L
Endpoint 2: Number of patients who had a platelet count during the trial that increased by 2 × 10^4/μL or more from the count before initiation of administration and reached to 5 × 10^4/μL or higher ([2]; 2.0 mg once daily, n = 12): 9
Number of patients to whom administration was discontinued according to the administration discontinuating criteria ([2]; 2.0 mg once daily, n = 12): 3
Number of patients who received platelet transfusion ([2]; 2.0 mg once daily, n = 12): 2
Endpoint 2: Number of patients who had a platelet count during the trial that increased by 2 × 10^4/μL or more from the count before initiation of administration and reached to 5 × 10^4/μL or higher ([2]; 2.5 mg once daily, n = 6): 4
Number of patients to whom administration was discontinued according to the administration discontinuating criteria ([2]; 2.5 mg once daily, n = 6): 3
Number of patients who received platelet transfusion ([2]; 2.5 mg once daily, n = 6): 1
Endpoint 2: Number of patients who had a platelet count during the trial that increased by 2 × 10^4/μL or more from the count before initiation of administration and reached to 5 × 10^4/μL or higher ([2]; 3.0 mg once daily, n = 7): 6
Number of patients to whom administration was discontinued according to the administration discontinuating criteria ([2]; 3.0 mg once daily, n = 7): 0
Number of patients who received platelet transfusion ([2]; 3.0 mg once daily, n = 7): 1
Endpoint 2: Number of patients who had a platelet count during the trial that increased by 2 × 10^4/μL or more from the count before initiation of administration and reached to 5 × 10^4/μL or higher ([2]; 4.0 mg once daily, n = 8): 7
Number of patients to whom administration was discontinued according to the administration discontinuating criteria ([2]; 4.0 mg once daily, n = 8): 2
Number of patients who received platelet transfusion ([2]; 4.0 mg once daily, n = 8): 1
efficacy at each dose ([2]; all doses (2.0, 2.5, 3.0 and 4.0 mg)): all doses showed the efficacy
patients who had a platelet count of higher than 20×10^4/μL during the observation period ([2]; daily dose 2.0, 2.5, 3.0 and 4.0 mg): None
maximum platelet count of patients to whom administration was discontinued according to the criteria ([2]; groups of daily dose 2 mg, 2.5 mg and 4.0 mg, vs patients who received the drug for 7 days): lower than that of patients who received the drug for 7 days
